Laboratory results published in publication PMC9229294, “Pyridazinones and Structurally Related Derivatives with Anti-Inflammatory Activity” (Molecules, 2022).
Read-outs that look alike come from different tables or passages of the source. Blank lines part the entries; values can stand above or below the compound they belong to.

Key:
[1] = test system: LPS-induced NF-κB activity in THP1-Blue cells; assay: Inhibition of LPS-induced NF-κB transcriptional activity, alkaline phosphatase reporter, THP1-Blue cells; format: cell-based, human; conditions: for IC50: LPS-induced NF-κB activity, human THP1-Blue cells, N.A. = no activity at 50 µM; for Observed class for inhibition of NF-κB activity: experimentally observed, Active or N.A.; for Effect of blocking FPR1 (Boc-MLF) on inhibitor activity on LPS-induced NF-κB activation: 25 μM Boc-MLF 15 min, then 5 µM compound, LPS-treated THP1 cells; for Inhibition of LPS-induced NF-κB activity (in words): THP1-Blue cells, 250 ng/mL LPS, 24 h
Experimental: (§1) Our studies included 175 compounds that were previously synthesized and characterized at NEUROFARBA, Pharmaceutical and Nutraceutical Section, University of Florence, Italy. We previously evaluated the FPR1/FPR2 agonist activity of these compounds by evaluating their ability to induce Ca^2+ mobilization in FPR-transfected HL60 cells and human neutrophils. […] All test compounds were dissolved in DMSO at stock concentrations of 10 mM and stored at −20 °C. For primary screening assays (analysis of NF-κB activation, IL-6 production, and cytotoxicity), the following final concentrations of the compounds were used: 3.125, 6.25, 12.5, 25, and 50 µM; the final concentration of DMSO was 1% in all samples.
The activation of NF-κB was measured using an alkaline phosphatase reporter assay in human monocytic THP1-Blue cells stably transfected with a secreted embryonic alkaline phosphatase gene that is under the control of a promoter inducible by the NF-κB. The THP1-Blue cells (2 × 10^5 cells/well) were pretreated with the test compound or DMSO for 30 min, followed by an addition of 250 ng/mL LPS for 24 h. Alkaline phosphatase activity was determined in cell supernatants using a QUANTI-Blue mix (InvivoGen) and measured at 655 nm and compared with positive control samples (LPS).

[2] = Cytotoxicity, CellTiter-Glo, THP1-Blue cells; format: cell-based, human; conditions: human, THP1-Blue cells
Experimental: as §1
(§2) The cytotoxicity was analyzed with a CellTiter-Glo Luminescent Cell Viability Assay Kit from Promega (Madison, WI, USA), according to the manufacturer’s protocol. The luminescent ATP assays are based on a luciferase enzymatic reaction which uses ATP from viable cells to generate photons. For this assay, the cells were incubated with the compounds under investigation for 24 h. After treatment, the cells were equilibrated to room temperature for 30 min, luciferase + luciferin substrate was added, and the samples were analyzed with a Fluoroscan Ascent FL (Thermo Fisher Scientific, Waltham, MA, USA). The IC50 values were calculated by plotting the percentage inhibition against the logarithm of the inhibitor concentration (at least five points).

THP1-Blue cells = assay: Cytotoxicity, CellTiter-Glo, THP1-Blue cells; format: cell-based, human; conditions: for Cytotoxicity in THP1-Blue Cells (FPR peptide agonists): peptides tested at 5 nM, N.T. = no cytotoxicity
Experimental: as §1, §2

FPR1 [3] = target: T1, FPR1 (Homo sapiens, UniProt P21462); conditions: FPR1-transfected HL-60 cells, read-out: Ca2+ Mobilization FPR1 EC50 in HL-60 Cells, cited from earlier work
T1 construct: expressed in transfected cells; host or cells: HL-60 cells (FPR1-HL60)
T1 sequence (P21462 1-350): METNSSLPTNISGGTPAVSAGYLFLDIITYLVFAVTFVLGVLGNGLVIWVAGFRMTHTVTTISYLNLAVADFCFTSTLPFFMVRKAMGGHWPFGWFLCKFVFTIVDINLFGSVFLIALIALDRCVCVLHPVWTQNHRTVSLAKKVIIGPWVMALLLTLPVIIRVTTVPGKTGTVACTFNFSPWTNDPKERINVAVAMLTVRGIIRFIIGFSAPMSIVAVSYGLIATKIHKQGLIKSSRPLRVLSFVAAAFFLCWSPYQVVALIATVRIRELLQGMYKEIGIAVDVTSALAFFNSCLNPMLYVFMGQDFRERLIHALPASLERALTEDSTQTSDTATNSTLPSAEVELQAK

FPR2 [4] = target: T2, FPR2 (Homo sapiens, UniProt P25090); conditions: FPR2-transfected HL-60 cells, read-out: Ca2+ Mobilization FPR2 EC50 in HL-60 Cells, cited from earlier work
T2 construct: expressed in transfected cells; host or cells: HL-60 cells (FPR2-HL60)
T2 sequence (P25090 1-351): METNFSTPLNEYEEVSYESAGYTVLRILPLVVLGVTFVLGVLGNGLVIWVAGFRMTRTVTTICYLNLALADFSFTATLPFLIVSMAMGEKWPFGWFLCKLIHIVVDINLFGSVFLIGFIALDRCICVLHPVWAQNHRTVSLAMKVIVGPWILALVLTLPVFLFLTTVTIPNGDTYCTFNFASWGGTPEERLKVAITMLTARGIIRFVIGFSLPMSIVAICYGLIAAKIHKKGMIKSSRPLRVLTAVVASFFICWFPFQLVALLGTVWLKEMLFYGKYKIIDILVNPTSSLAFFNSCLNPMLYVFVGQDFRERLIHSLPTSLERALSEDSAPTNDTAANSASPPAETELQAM

[5] = test system: LPS-induced IL-6 production in MonoMac-6 cells; assay: Inhibition of LPS-induced IL-6 production in MonoMac-6 cells (ELISA); format: cell-based, human; conditions: for IC50: Homo sapiens, MONO-MAC-6, read-out: Inhibition of IL-6 Production IC50 in MonoMac-6 Cells
Experimental: as §1
A human IL-6 ELISA kit (BD Biosciences, San Jose, CA, USA) was used to measure IL-6 production. […] The cells were pretreated with the test compound or DMSO for 30 min, followed by addition of 250 ng/mL LPS for 24 h. The IC50 values for IL-6 production were calculated by plotting the percentage inhibition against the logarithm of the inhibitor concentration (at least five points).

[6] = Cytotoxicity, CellTiter-Glo, MonoMac-6 cells; format: cell-based, human; conditions: human, MonoMac-6 cells
Experimental: as §1, §2

mouse aortas = test system: mouse aortas; set-up: method as in PMID 19639995, PMID 32085666, PMID 28169296; conditions: cited from earlier work
[7] = test system: myocardial infarction injury in mice; set-up: method as in PMID 19639995, PMID 32085666, PMID 28169296; conditions: cited from earlier work
MonoMac-6 cells = assay: Cytotoxicity, CellTiter-Glo, MonoMac-6 cells; format: cell-based, human; conditions: 24 h
Experimental: as §1, §2

[8] = test system: rats with CFA-induced inflammatory arthritis; set-up: method as in PMID 32388428; conditions: cited from earlier work
FPR1 [9] = target: T1, FPR1; assay: Ca2+ mobilization in FPR1-transfected HL-60 cells (agonist activity); format: cell-based; conditions: reported here for the first time (Suppl.)
Experimental: (§3) Changes in the intracellular Ca^2+ [Ca^2+]i were measured with a FlexStation II scanning fluorometer (Molecular Devices). The cells, which were suspended in Hank’s balanced salt solution without Ca^2+ and Mg^2+ but with 10 mM HEPES (HBSS^−), were loaded with 1.25 μg/mL Fluo-4 AM dye and incubated for 30 min in the dark at 37 °C. After the dye loading, the cells were washed with HBSS^− containing 10 mM HEPES, resuspended in HBSS^+ containing Ca^2+, Mg^2+, and 10 mM HEPES (HBSS^+), and aliquoted into the wells of black microtiter plates (2 × 10^5 cells/well). […] The maximum change in the fluorescence during the first 3 min, expressed in arbitrary units over the baseline, was used to determine a response. […] A curve fitting (5–6 points) and a calculation of median effective inhibitory concentrations (IC50) were performed by nonlinear regression analysis of the dose–response curves generated using Prism 8 (GraphPad Software, Inc., San Diego, CA, USA).

FPR2 [10] = target: T2, FPR2; assay: Ca2+ mobilization in FPR2-transfected HL-60 cells (agonist activity); format: cell-based; conditions: reported here for the first time (Suppl.)
Experimental: as §3

[11] = N.T. = no cytotoxicity at 50 µM, read-out: Cytotoxicity IC50 in THP1-Blue Cells
[12] = Table 3, as reported previously (see Table 1)

Structure (SMILES): COc1cccc(Nc2c(C)c(-c3ccccc3)nn2CC(=O)Nc2ccc(Br)cc2)c1 [Compound 158]
IC50 ([1]; Homo sapiens): 8.8 ± 1.1 µM
Observed class for inhibition of NF-κB activity [1]: Active
IC50 at 24 h ([2]; 24 h, read-out: Cytotoxicity IC50): 22 to 26 µM
IC50 at 24 h [2, 11]: 22.4 ± 5.2 µM
Cytotoxicity in THP1-Blue cells (in words) (THP1-Blue cells; 24 h): cytotoxic
EC50 (FPR1 [3]; agonist activity from Table 1): > 50 µM
EC50 (FPR2 [4]; agonist activity from Table 1): > 50 µM

IC50 ([1]; Homo sapiens): 0.6 ± 0.1 µM
IC50 [5]: 30.7 ± 1.8 µM
Structure (SMILES): COc1cccc(Cc2cc(C)nn(C(C)C(=O)Nc3ccc(Br)cc3)c2=O)c1 (centres unmarked) [Compound 84, N-(4-bromophenyl)-2-[5-(3-methoxybenzyl)-3-methyl-6-oxopyridazin-1(6H)-yl]-propanamide]
Effect of blocking FPR1 (Boc-MLF) on inhibitor activity on LPS-induced NF-κB activation [1]: no effect
IC50 at 24 h [2, 11]: > 50 µM
IC50 at 24 h [6]: > 50 µM
Endothelium-independent relaxation (mouse aortas): induce endothelium-independent relaxation
Cardioprotection in myocardial infarction injury [7]: cardioprotection effect

IC50 ([1]; Homo sapiens): 18 ± 0.7 µM
IC50 [5]: 27.5 ± 1.6 µM
Structure (SMILES): Cc1cc(Cc2ccsc2)c(=O)n(CC(=O)Nc2ccc(Br)cc2)n1 [Compound 9]
Observed class for inhibition of NF-κB activity [1]: Active
IC50 at 24 h [2, 11]: > 50 µM
IC50 at 24 h [6]: 19 ± 3.6 µM
Cytotoxicity in MonoMac-6 cells (in words) (MonoMac-6 cells): exhibiting cytotoxicity

Structure (SMILES): CSCC[C@H](NC=O)C(=O)N[C@@H](CC(C)C)C(=O)N[C@@H](Cc1ccccc1)C(=O)O [f MLF]
Cytotoxicity in THP1-Blue Cells (FPR peptide agonists) (THP1-Blue cells; THP1-Blue cells): N.T. (No cytotoxicity was observed at the highest concentration tested (50 µM))

Structure (SMILES): COc1cccc(Nc2c(C(C)=O)c(C)nn(CC(=O)Nc3ccc(Br)cc3)c2=O)c1 [Compound 73]
Inhibition of LPS-induced NF-κB activity (in words) [1]: inactive
Pain hypersensitivity [8]: reduce pain hypersensitivity

Structure (SMILES): CSCC[C@H](NC(=O)[C@@H](NC(=O)[C@H](CCSC)NC(=O)[C@H](Cc1ccc(O)cc1)NC(=O)[C@H](CCCCN)NC(=O)[C@@H](N)Cc1c[nH]c2ccccc12)C(C)C)C(=O)O [WKYMVM, Trp-Lys-Tyr-Met-Val-Met, reference compound]
Cytotoxicity in THP1-Blue Cells (FPR peptide agonists) (THP1-Blue cells; THP1-Blue cells): N.T. (No cytotoxicity was observed at the highest concentration tested (50 µM))

IC50 [1]: 22.4 ± 0.7 µM
IC50 [5]: 7.2 ± 0.03 µM
Structure (SMILES): CC1CC(c2ccccc2)=NN(CC(=O)Nc2ccc(Br)cc2)C1=O (centres unmarked) [Compound 125]
IC50 (THP1-Blue cells; THP1-Blue cells, N.T. = no cytotoxicity at 50 µM): > 50 µM
IC50 at 24 h [6]: > 50 µM
EC50 (FPR1 [3]; agonist activity from Table 1): 24.4 µM
EC50 (FPR1 [3]; [12]): 24.4 µM
EC50 (FPR2 [4]; agonist activity from Table 1): 10 µM
EC50 (FPR2 [4]; [12]): 10 µM

IC50 ([1]; Homo sapiens): 0.5 ± 0.1 µM
IC50 [5]: 2 ± 0.3 µM
Structure (SMILES): COc1cccc(Cc2c(-c3ccccc3)c(C)nn(CC(=O)Nc3ccc(Br)cc3)c2=O)c1 [Compound 71, N-(4-bromophenyl)-2-[5-(3-methoxybenzyl)-3-methyl-6-oxo-4-phenylpyridazin-1(6H)-yl]-acetamide]
Effect of blocking FPR1 (Boc-MLF) on inhibitor activity on LPS-induced NF-κB activation [1]: no effect
Inhibition of LPS-induced NF-κB activity (in words) [1]: inhibited
Observed class for inhibition of NF-κB activity [1]: Active
Inhibition of LPS-induced IL-6 production (in words) ([5]; MonoMac-6 cells, 250 ng/mL LPS, 24 h): inhibited
IC50 at 24 h [2, 11]: > 50 µM
IC50 at 24 h [6]: > 50 µM
EC50 (FPR1 [3]; [12]): 2.2 µM
EC50 (FPR2 [4]; agonist activity from Table 1): > 50 µM
EC50 (FPR2 [4]; [12]): > 50 µM
Pain hypersensitivity [8]: reduce pain hypersensitivity

Structure (SMILES): COc1cccc(Cc2c(C)c(C)nn(CC(=O)Nc3ccc(Br)cc3)c2=O)c1 [Compound 69]
IC50 ([1]; Homo sapiens): 34.5 ± 2.6 µM
Inhibition of LPS-induced NF-κB activity (in words) [1]: inhibited
Observed class for inhibition of NF-κB activity [1]: Active
IC50 at 24 h [2, 11]: > 50 µM
Pain hypersensitivity [8]: reduce pain hypersensitivity

EC50 (FPR1 [9]): > 50 µM
EC50 (FPR2 [10]): > 50 µM
Structure (SMILES): Cc1cc(Cc2ccc(C(=O)Nc3ccc(Br)cc3)cc2)c(=O)n(CC(=O)Nc2ccc(Br)cc2)n1 [Compound 61]

EC50 (FPR1 [9]): > 50 µM
EC50 (FPR2 [10]): > 50 µM
Structure (SMILES): Nc1cc(-c2ccncc2)cn(CC(=O)Nc2ccc(Br)cc2)c1=O [Compound 139]
